This passage reports IC50 results from patent US20230373985A1 (Origenis Gmbh, priority 2020, published 2023).

For experiment [1], the target named is T1, wt human JAK1, catalytic site (Homo sapiens, UniProt P23458).
T1 construct: wt human JAK1, catalytic site; purchased ThermoFisher
The experiment is described as follows: HTRF KinEASE assay, JAK1. In kind it is biochemical. Conditions: 2.5 μM ATP; read-out: IC50, Activity Toward JAK1. The method, boiled down:
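Compounds in DMSO dilution were mixed with kinase, biotin-TK substrate and ATP and reacted for ≥30 min at room temperature. Detection reagents (antibody, streptavidin-XL665) were read 60 min later as HTRF, with emission ratios analysed per KinEASE protocol.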
(Time-resolved FRET reads energy transfer from a long-lived donor to a nearby acceptor.)

Experiment [2] has as its target T2, wt human TYK2, catalytic site (Homo sapiens, UniProt P29597).
T2 construct: wt human TYK2, catalytic site; purchased SignalChem
T2 sequence (P29597 897-1176 limits assumed): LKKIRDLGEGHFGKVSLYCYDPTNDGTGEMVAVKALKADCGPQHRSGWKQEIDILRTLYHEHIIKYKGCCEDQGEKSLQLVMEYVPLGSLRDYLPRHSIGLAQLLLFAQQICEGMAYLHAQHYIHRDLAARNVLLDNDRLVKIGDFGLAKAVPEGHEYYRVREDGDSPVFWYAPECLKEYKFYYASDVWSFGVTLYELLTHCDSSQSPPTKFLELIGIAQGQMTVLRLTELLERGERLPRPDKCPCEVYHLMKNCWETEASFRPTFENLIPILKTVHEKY
The experiment can be described thus: HTRF KinEASE assay, TYK2. The class given is biochemical. The conditions noted are these: 1 μM ATP; read-out: IC50, Activity Toward TYK2. The method, boiled down:
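Kinase reaction run at room temperature for at least 30 min: 2 nM TYK2 with 1 μM ATP, or 1 nM JAK2 with 100 μM ATP, each with 1 μM biotin-TK substrate. Phosphorylation detected by HTRF (60 min antibody/XL665) and evaluated from emission ratios.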

The target in experiment [3] is T3, wt human JAK2, catalytic site (Homo sapiens, UniProt O60674).
T3 construct: wt human JAK2, catalytic site; purchased SignalChem
T3 sequence (O60674 849-1124 limits assumed): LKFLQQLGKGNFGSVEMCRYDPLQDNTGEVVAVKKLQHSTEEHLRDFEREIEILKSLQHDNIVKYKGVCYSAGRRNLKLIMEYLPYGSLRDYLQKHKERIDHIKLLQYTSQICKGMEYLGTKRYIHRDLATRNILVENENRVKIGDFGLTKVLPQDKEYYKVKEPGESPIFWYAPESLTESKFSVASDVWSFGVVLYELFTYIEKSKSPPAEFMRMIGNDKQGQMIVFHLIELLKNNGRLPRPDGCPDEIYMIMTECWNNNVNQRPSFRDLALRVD
The experiment is described as follows: HTRF KinEASE assay, JAK2. The class given is biochemical. The conditions noted are these: assay format not given (Z'-LYTE or HTRF KinEASE); read-out: IC50, Activity Toward JAK2. The method, then:
Basic protocol for HTRF KinEASE assay (Cisbio/FRA) inhibitor studies involved two steps: • Enzymatic step: Addition of 4 μL of test compound in corresponding DMSO dilutions, 4 μL of kinase/substrate mixture, 2 μL of ATP into 384 well small volume plates. Incubation for at least 30 minutes at room temperature. • Detection step: Addition of 5 μL antibody and 5 μL streptavidin-XL665, read plate after 60 minutes. Data analysis of emission ratios according KinEASE assay protocol.
(§1) Kinase and assay components were adjusted to final concentrations according to kit protocol. For TYK2: 2 nM wt human TYK2, catalytic site (SignalChem/CAN), 1 μM HTRF KinEASE-TK Substrate-biotin, 1 μM ATP in 1× Kinase Buffer. For JAK1: 4 nM wt human JAK1, catalytic site (ThermoFisher/USA), 1 μM HTRF KinEASE-TK Substrate-biotin, 2.5 μM ATP in 1× Kinase Buffer. For JAK2: 1 nM wt human JAK2, catalytic site (SignalChem/CAN), 1 μM HTRF KinEASE-TK Substrate-biotin, 100 μM ATP in 1× Kinase Buffer.
as §1

Experiment [4] deals with T4, G2019S human LRRK2, catalytic site (Homo sapiens, UniProt Q5S007, G2019S).
T4 construct: G2019S human LRRK2, catalytic site; purchased ThermoFisher
T4 sequence (Q5S007 970-2527 G2019S limits assumed): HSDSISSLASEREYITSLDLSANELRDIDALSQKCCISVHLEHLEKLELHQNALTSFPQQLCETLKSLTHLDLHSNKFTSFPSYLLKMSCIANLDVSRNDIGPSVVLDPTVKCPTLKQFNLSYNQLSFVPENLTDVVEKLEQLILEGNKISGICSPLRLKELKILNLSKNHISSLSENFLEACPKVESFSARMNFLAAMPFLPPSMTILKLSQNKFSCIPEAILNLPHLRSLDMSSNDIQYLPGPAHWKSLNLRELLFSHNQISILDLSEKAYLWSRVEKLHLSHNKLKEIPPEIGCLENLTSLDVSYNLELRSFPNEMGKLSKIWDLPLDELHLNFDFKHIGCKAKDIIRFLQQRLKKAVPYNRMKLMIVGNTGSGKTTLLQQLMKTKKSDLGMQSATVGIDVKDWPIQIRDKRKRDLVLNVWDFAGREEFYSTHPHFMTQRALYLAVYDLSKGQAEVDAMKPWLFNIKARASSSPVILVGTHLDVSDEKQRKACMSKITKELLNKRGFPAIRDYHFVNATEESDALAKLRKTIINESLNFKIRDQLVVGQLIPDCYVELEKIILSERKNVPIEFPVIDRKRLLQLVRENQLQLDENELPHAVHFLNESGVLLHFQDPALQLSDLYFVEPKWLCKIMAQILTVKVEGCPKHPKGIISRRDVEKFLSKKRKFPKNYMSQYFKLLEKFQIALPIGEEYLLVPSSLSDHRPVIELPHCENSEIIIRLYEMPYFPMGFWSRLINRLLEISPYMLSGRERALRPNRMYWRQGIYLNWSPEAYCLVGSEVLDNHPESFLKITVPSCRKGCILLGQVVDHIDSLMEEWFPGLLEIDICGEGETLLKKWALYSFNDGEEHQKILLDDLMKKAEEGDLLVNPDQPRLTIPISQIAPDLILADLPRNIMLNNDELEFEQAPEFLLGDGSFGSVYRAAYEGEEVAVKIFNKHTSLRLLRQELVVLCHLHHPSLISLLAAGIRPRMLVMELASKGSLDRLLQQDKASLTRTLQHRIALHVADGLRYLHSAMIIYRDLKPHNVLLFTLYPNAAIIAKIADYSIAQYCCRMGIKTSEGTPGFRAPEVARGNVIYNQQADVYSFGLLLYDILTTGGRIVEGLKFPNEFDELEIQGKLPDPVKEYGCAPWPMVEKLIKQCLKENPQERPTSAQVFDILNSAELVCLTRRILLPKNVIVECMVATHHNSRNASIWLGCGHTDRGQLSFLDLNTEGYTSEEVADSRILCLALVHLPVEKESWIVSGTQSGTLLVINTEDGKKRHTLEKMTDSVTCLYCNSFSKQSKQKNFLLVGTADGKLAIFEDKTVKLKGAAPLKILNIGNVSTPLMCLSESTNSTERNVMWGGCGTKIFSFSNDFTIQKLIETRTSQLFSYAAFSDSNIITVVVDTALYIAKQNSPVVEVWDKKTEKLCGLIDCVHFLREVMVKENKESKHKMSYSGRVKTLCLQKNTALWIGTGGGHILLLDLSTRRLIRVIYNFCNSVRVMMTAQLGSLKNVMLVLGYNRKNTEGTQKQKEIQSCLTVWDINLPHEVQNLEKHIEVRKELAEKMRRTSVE
The experiment is described as follows: TR-FRET LanthaScreen Eu Kinase Binding Assay, LRRK2 G2019S. Conditions: LRRK2(G2019); one range stated for wt and G2019; read-out: IC50, Activity Toward LRRK2(G2019). The method, boiled down: (§2)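 Each kinase was incubated with compound, 2 nM europium-labelled antibody and Tracer 236 for one hour at room temperature before plate reading. LRRK2 wt and G2019S used 5 nM protein and 10 nM tracer; NUAK1 used 8 nM protein and 5 nM tracer.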

Experiment [5] has as its target T5, wt human LRRK2, catalytic site (Homo sapiens, UniProt Q5S007).
T5 construct: 5 nM wt human LRRK2, catalytic site; purchased ThermoFisher
The experiment can be described thus: TR-FRET LanthaScreen Eu Kinase Binding Assay, LRRK2 wt. Conditions: one range stated for wt and G2019, read-out: IC50, Activity Toward LRRK2(Wt). An outline of the steps:
as §2

Experiment [6] deals with T6, wt human NUAK1, full length (Homo sapiens, UniProt O60285).
T6 construct: 8 nM wt human NUAK1, full length (ThermoFisher/USA); purchased ThermoFisher
T6 sequence (O60285 1-661): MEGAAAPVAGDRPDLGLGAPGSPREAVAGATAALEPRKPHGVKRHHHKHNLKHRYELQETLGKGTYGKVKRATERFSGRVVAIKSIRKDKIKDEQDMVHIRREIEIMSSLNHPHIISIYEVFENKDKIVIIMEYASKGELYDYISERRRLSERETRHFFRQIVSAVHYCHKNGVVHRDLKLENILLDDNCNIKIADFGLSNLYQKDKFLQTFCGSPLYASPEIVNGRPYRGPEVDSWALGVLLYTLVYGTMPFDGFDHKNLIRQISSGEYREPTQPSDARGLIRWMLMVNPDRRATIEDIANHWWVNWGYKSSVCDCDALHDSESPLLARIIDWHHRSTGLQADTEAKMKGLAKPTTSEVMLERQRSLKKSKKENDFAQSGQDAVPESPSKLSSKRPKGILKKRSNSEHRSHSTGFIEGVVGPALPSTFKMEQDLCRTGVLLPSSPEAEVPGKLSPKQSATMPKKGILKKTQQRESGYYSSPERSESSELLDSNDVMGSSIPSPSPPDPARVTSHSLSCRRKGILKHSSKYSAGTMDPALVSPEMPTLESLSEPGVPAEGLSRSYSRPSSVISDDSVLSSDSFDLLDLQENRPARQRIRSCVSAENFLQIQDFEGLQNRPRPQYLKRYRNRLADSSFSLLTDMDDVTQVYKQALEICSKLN
The experiment is described as follows: TR-FRET LanthaScreen Eu Kinase Binding Assay, NUAK1. The conditions noted are these: read-out: IC50, Activity Toward NUAK1. The method, boiled down:
as §2

Each structure is given as a SMILES string.

T5 sequence (Q5S007 970-2527 limits assumed): as the sequence (Q5S007 970-2527 G2019S limits assumed) above, with S1050G counted along it
T1 sequence (P23458 875-1153 limits assumed): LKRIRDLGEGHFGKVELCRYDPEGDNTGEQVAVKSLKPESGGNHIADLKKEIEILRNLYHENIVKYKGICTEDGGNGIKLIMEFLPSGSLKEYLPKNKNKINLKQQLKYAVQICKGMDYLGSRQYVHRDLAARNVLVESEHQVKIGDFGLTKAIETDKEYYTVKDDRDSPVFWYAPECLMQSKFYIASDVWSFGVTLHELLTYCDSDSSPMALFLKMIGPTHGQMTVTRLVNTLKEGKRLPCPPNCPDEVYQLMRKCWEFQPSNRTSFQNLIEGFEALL

As to `NC(=O)c1nn(-c2c(Cl)cccc2Cl)nc1Nc1ccc(OC2CCNCC2)cc1` [Compound No. 120, 2-(2,6-dichlorophenyl)-5-((4-(piperidin-4-yloxy)phenyl)amino)-2H-1,2,3-triazole-4-carboxamide], the figures for the IC50 in experiment [1], in experiment [2] and in experiment [3] were 10 to 100 nM, 10 to 100 nM and 100 to 1000 nM, respectively.
`CC(C)n1ncnc1-c1ccc(Nc2cn(-c3c(Cl)cccc3Cl)nc2C(N)=O)cc1` [compound 90, 1-(2,6-dichlorophenyl)-4-((4-(1-isopropyl-1H-1,2,4-triazol-5-yl)phenyl)amino)-1H-pyrazole-3-carboxamide]: the 50% inhibitory concentration (IC50) fell in the range of 100 to 1000 nM in experiment [1], 10 to 100 nM in experiment [2] and 100 to 1000 nM in experiment [3].
`NC(=O)c1nn(-c2c(Cl)cccc2Cl)cc1Nc1ccc(C(=O)N2CCCC2)cc1` [compound 94, 1-(2,6-dichlorophenyl)-4-((4-(pyrrolidine-1-carbonyl)phenyl)amino)-1H-pyrazole-3-carboxamide]: the values for the half-maximal inhibitory concentration (IC50) in experiment [1], in experiment [2] and in experiment [3] were 10 to 100 nM, 10 to 100 nM and 100 to 1000 nM, respectively.
`Cn1ncnc1-c1ccc(Nc2cn(-c3c(Cl)cccc3Cl)nc2C(N)=O)cc1` [compound 96, 1-(2,6-dichlorophenyl)-4-((4-(1-methyl-1H-1,2,4-triazol-5-yl)phenyl)amino)-1H-pyrazole-3-carboxamide]: the values for the half-maximal inhibitory concentration (IC50) in experiment [1], in experiment [2] and in experiment [3] were 10 to 100 nM, 10 to 100 nM and 100 to 1000 nM, respectively.
As to `N#CC1CN(C(=O)c2ccc(Nc3nn(-c4c(Cl)cccc4Cl)nc3C(N)=O)cc2)C1` [compound 107, 5-[4-(3-Cyano-azetidine-1-carbonyl)-phenylamino]-2-(2,6-dichloro-phenyl)-2H-[1,2,3]triazole-4-carboxylic acid amide], the IC50 in experiment [1] was 100 to 1000 nM; in experiment [2], below 10 nM; in experiment [3] it was 100 to 1000 nM.
On to `NC(=O)c1nn(-c2c(Cl)cccc2Cl)nc1Nc1ccc(-c2nnc3n2CCCC3)cc1` [compound 109, 2-(2,6-Dichloro-phenyl)-5-[4-(5,6,7,8-tetrahydro-[1,2,4]triazolo[4,3-a]pyridin-3-yl)-phenylamino]-2H-[1,2,3]triazole-4-carboxylic acid amide], for which the concentration for half-maximal inhibition (IC50) is 10 to 100 nM in experiment [1], below 10 nM in experiment [2] and 100 to 1000 nM in experiment [3].
Take `CC(=O)N1CC(n2cc(C(F)(F)F)nc2-c2ccc(Nc3cn(-c4c(Cl)cccc4Cl)nc3C(N)=O)cc2)C1` [compound 342, 4-((4-(1-(1-acetylazetidin-3-yl)-4-(trifluoromethyl)-1H-imidazol-2-yl)phenyl)amino)-1-(2,6-dichlorophenyl)-1H-pyrazole-3-carboxamide]: the concentration for half-maximal inhibition (IC50) in experiment [1] is 100 to 1000 nM; in experiment [2], below 10 nM; in experiment [4] it was 100 to 1000 nM; in experiment [5], 100 to 1000 nM; in experiment [6], 100 to 1000 nM.
`N#Cc1cn(C2COC2)c(-c2ccc(Nc3cn(-c4c(Cl)cccc4Cl)nc3C(N)=O)cc2)n1` [compound 349, 4-((4-(4-cyano-1-(oxetan-3-yl)-1H-imidazol-2-yl)phenyl)amino)-1-(2,6-dichlorophenyl)-1H-pyrazole-3-carboxamide]: the IC50 in experiment [1] is 100 to 1000 nM; in experiment [2], below 10 nM; in experiment [4], 100 to 1000 nM; in experiment [5] it was 100 to 1000 nM; in experiment [6] it was 100 to 1000 nM.
`Cn1cc(Nc2cn(-c3c(F)cccc3Cl)nc2C(N)=O)cn1` [compound 359, 1-(2-chloro-6-fluorophenyl)-4-((1-methyl-1H-pyrazol-4-yl)amino)-1H-pyrazole-3-carboxamide]: the half-maximal inhibitory concentration (IC50) in experiment [1] fell in the range of 10 to 100 nM; in experiment [2] it was 10 to 100 nM; in experiment [4], 100 to 1000 nM; in experiment [5], 100 to 1000 nM; in experiment [6], 100 to 1000 nM.
Regarding `N#Cc1cn(CCO)c(-c2ccc(Nc3cn(-c4c(Cl)cccc4Cl)nc3C(N)=O)cc2)n1` [compound 361, 4-((4-(4-cyano-1-(2-hydroxyethyl)-1H-imidazol-2-yl)phenyl)amino)-1-(2,6-dichlorophenyl)-1H-pyrazole-3-carboxamide], the 50% inhibitory concentration (IC50) is 10 to 100 nM in experiment [1]; below 10 nM in experiment [2]; 100 to 1000 nM in experiment [4]; 100 to 1000 nM in experiment [5]; 100 to 1000 nM in experiment [6].
For `CN1CCC(N(C)C(=O)c2ccc(Nc3cn(-c4c(Cl)ccc(F)c4Cl)nc3C(N)=O)cc2)CC1` [compound 417, 1-(2,6-dichloro-3-fluorophenyl)-4-((4-(methyl(1-methylpiperidin-4-yl)carbamoyl)phenyl)amino)-1H-pyrazole-3-carboxamide], the IC50 in experiment [1] lay in the range of 10 to 100 nM; in experiment [2], 10 to 100 nM; in experiment [4] it was 100 to 1000 nM; in experiment [5], 100 to 1000 nM; in experiment [6], 100 to 1000 nM.
Regarding `CCN(CC)CCNC(=O)c1ccc(Nc2cn(-c3c(Cl)cccc3Cl)nc2C(N)=O)cc1` [compound 422, 1-(2,6-dichlorophenyl)-4-((4-((2-(diethylamino)ethyl)carbamoyl)phenyl)amino)-1H-pyrazole-3-carboxamide], the IC50 in experiment [1] was in the range of 10 to 100 nM; in experiment [2] it was 10 to 100 nM; in experiment [4], 100 to 1000 nM; in experiment [5], 100 to 1000 nM; in experiment [6], 100 to 1000 nM.
As for `CN(C)C1CCN(C(=O)c2ccc(Nc3cn(-c4c(Cl)cccc4Cl)nc3C(N)=O)cc2)CC1` [compound 423, 1-(2,6-dichlorophenyl)-4-((4-(4-(dimethylamino)piperidine-1-carbonyl)phenyl)amino)-1H-pyrazole-3-carboxamide], the IC50 in experiment [1] was 10 to 100 nM; in experiment [2], 10 to 100 nM; in experiment [4], 100 to 1000 nM; in experiment [5], 100 to 1000 nM; in experiment [6] it was 100 to 1000 nM.
With `NC(=O)c1nn(-c2c(Cl)cccc2Cl)cc1Nc1ccc(C(=O)N2CC(C(N)=O)C2)cc1` [compound 453, 4-[4-(3-Carbamoyl-azetidine-1-carbonyl)-phenylamino]-1-(2,6-dichloro-phenyl)-1H-pyrazole-3-carboxylic acid amide], the IC50 was below 10 nM in experiment [1]; below 10 nM in experiment [2]; 100 to 1000 nM in experiment [4]; 100 to 1000 nM in experiment [5]; 100 to 1000 nM in experiment [6].

As usually defined, the IC50 is the concentration at which inhibition is half-maximal.
